Results reported in ChEMBL document CHEMBL1124261 (J Med Chem, 1988).

Columns and labels:
[1] = molecular target: T1, Folylpolyglutamate synthase, mitochondrial (Mus musculus, UniProt P48760); assay: Inhibitory constant against purified Folyl-polyglutamate synthase obtained from mouse
T1 sequence (P48760 whole entry): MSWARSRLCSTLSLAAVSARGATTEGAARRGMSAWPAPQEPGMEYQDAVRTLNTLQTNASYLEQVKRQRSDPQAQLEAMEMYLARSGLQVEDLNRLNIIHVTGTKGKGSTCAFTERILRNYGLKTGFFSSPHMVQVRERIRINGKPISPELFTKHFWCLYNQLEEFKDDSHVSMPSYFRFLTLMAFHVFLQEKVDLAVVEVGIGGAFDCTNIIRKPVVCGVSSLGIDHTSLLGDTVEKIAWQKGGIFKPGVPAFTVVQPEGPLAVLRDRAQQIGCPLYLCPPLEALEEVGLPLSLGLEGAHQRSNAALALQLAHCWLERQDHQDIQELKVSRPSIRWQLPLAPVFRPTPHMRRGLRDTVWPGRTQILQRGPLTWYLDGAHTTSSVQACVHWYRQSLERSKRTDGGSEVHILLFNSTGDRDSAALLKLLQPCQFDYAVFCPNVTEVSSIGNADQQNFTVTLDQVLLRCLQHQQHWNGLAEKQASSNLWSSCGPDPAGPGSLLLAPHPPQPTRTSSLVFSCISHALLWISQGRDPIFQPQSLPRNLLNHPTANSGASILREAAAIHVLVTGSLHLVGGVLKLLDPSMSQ

[2] = molecular target: T2, Folylpolyglutamate synthase, mitochondrial (Homo sapiens, UniProt Q05932); assay: Inhibitory constant against purified Folyl-polyglutamate synthase obtained from human
T2 sequence (Q05932 whole entry): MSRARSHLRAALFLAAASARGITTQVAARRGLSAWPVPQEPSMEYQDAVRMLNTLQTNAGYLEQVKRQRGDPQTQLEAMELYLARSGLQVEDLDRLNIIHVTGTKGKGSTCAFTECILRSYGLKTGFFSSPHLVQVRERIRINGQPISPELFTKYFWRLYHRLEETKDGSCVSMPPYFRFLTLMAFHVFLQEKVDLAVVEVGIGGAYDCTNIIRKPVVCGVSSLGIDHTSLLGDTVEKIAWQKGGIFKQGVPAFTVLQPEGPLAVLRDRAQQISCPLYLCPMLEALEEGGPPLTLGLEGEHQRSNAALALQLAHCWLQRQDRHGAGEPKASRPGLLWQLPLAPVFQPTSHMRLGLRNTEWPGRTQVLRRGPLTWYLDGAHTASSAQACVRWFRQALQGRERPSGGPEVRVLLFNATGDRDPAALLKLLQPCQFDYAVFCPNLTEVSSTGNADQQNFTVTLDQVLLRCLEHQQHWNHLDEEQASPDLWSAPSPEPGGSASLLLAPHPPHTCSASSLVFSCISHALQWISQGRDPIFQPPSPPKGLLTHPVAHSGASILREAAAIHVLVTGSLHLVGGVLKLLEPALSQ

[3] = test system: L1210; assay: Mean change in weight of mice infected with L1210 leukemia after 7 days after an intraperitoneal dose of 80 mg/kg; type: functional, Mus musculus
[4] = test system: L1210; assay: Range for the survival of mice infected with L1210 leukemia after an intraperitoneal dose of 60 mg/kg for 9 days; Range is 10-18; type: functional, Mus musculus
[5] = test system: L1210; assay: Increase in life span of mice infected with L1210 leukemia after an intraperitoneal dose of 20 mg/kg for 9 days; type: functional; conditions: Mus musculus, L1210, ip, 216 h
[6] = test system: CCRF-CEM; assay: Tested for cell-growth inhibition against human leukemic lymphoblast CEM/MTX cells; type: functional, cell-based
[7] = test system: L1210; assay: Mean survival of mice infected with L1210 leukemia after an intraperitoneal dose of 40 mg/kg for 9 days; type: functional, Mus musculus
[8] = test system: L1210; assay: Range for the survival of mice infected with L1210 leukemia after an intraperitoneal dose of 40 mg/kg for 9 days; Range is 13-23; type: functional, Mus musculus
[9] = test system: L1210 ( R81); assay: Tested for cell-growth inhibition against mouse leukemic L1210/R81 cells; type: functional, cell-based
[10] = test system: L1210; assay: Tested for cell-growth inhibition against mouse leukemic L1210 cells; type: functional, cell-based
[11] = test system: L1210; assay: Mean survival of mice infected with L1210 leukemia after an intraperitoneal dose of 60 mg/kg for 9 days; type: functional, Mus musculus
[12] = test system: L1210; assay: Increase in life span of mice infected with L1210 leukemia after an intraperitoneal dose of 40 mg/kg for 9 days; type: functional; conditions: Mus musculus, L1210, ip, 216 h
[13] = species on record: Mus musculus; assay: (§1) Tested for inhibition against purified Folyl-polyglutamate synthase from mouse liver; conditions: concentration not given here
[14] = test system: L1210; assay: Mean change in weight of mice infected with L1210 leukemia after 7 days after an intraperitoneal dose of 20 mg/kg; type: functional, Mus musculus
[15] = test system: CCRF-CEM; assay: Tested for cell-growth inhibition against human leukemic lymphoblast CEM cells; type: functional, cell-based
[16] = test system: L1210; assay: Mean change in weight of mice infected with L1210 leukemia after 7 days after an intraperitoneal dose of 60 mg/kg; type: functional, Mus musculus
[17] = test system: L1210; assay: Range for the survival of mice infected with L1210 leukemia after an intraperitoneal dose of 20 mg/kg for 9 days; Range is 15-16; type: functional, Mus musculus
[18] = test system: L1210; assay: Increase in life span of mice infected with L1210 leukemia after an intraperitoneal dose of 80 mg/kg for 9 days; type: functional; conditions: Mus musculus, L1210, ip, 216 h
[19] = test system: L1210; assay: Mean survival of mice infected with L1210 leukemia after an intraperitoneal dose of 20 mg/kg for 9 days; type: functional, Mus musculus
[20] = molecular target: T3, Dihydrofolate reductase (Mus musculus, UniProt P00375); assay: biochemical
T3 sequence (P00375 whole entry): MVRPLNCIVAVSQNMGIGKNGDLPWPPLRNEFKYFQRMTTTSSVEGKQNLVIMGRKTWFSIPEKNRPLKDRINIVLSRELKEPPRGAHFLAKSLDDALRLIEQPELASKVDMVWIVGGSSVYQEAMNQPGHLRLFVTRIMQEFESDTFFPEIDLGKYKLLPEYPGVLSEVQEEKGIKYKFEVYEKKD
Description: Tested for inhibition against purified Dihydrofolate reductase from L1210 murine leukemia cells

[21] = test system: L1210; assay: Range for the survival of mice infected with L1210 leukemia after an intraperitoneal dose of 80 mg/kg for 9 days; Range is 9-23; type: functional, Mus musculus
[22] = test system: L1210; assay: Increase in life span of mice infected with L1210 leukemia after an intraperitoneal dose of 60 mg/kg for 9 days; type: functional; conditions: Mus musculus, L1210, ip, 216 h
[23] = test system: L1210; assay: Mean survival of mice infected with L1210 leukemia after an intraperitoneal dose of 80 mg/kg for 9 days; type: functional, Mus musculus
[24] = test system: L1210; assay: Mean change in weight of mice infected with L1210 leukemia after 7 days after an intraperitoneal dose of 40 mg/kg; type: functional, Mus musculus
[25] = species on record: Mus musculus; assay: as §1; type: functional; conditions: dose or concentration not given here
[26] = test system: L1210; assay: Range for the survival of mice infected with L1210 leukemia after an intraperitoneal dose of 60 mg/kg for 9 days; Range is […]; type: functional, Mus musculus
[27] = test system: L1210; assay: Range for the survival of mice infected with L1210 leukemia after an intraperitoneal dose of 80 mg/kg for 9 days; Range is 12-18; type: functional, Mus musculus
[28] = test system: L1210; assay: Range for the survival of mice infected with L1210 leukemia after an intraperitoneal dose of 40 mg/kg for 9 days; Range is 14-24; type: functional, Mus musculus
[29] = test system: L1210; assay: Range for the survival of mice infected with L1210 leukemia after an intraperitoneal dose of 20 mg/kg for 9 days; Range is 16-19; type: functional, Mus musculus
[30] = molecular target: T4, Folylpolyglutamate synthase, mitochondrial (Mus musculus) (UniProt P48760); assay: as §1; type: functional; conditions: concentration not given here
T4 sequence (whole entry): T1 sequence (P48760 whole entry)

[31] = test system: L1210; assay: Range for the survival of mice infected with L1210 leukemia after an intraperitoneal dose of 20 mg/kg for 9 days; Range is 13-14; type: functional, Mus musculus
[32] = test system: L1210; assay: Range for the survival of mice infected with L1210 leukemia after an intraperitoneal dose of 60 mg/kg for 9 days; Range is 12-19; type: functional, Mus musculus
[33] = test system: L1210; assay: Range for the survival of mice infected with L1210 leukemia after an intraperitoneal dose of 40 mg/kg for 9 days; Range is 14-16; type: functional, Mus musculus

Row | SMILES | Weight change [3] [%] | ILS at 20 mg/kg [5] [%] | IC50 [6] [µM] | Survival [7] [days] | IC50 [9] [µM] | IC50 [10] [µM] | Survival [11] [days] | ILS at 40 mg/kg [12] [%] | Weight change [14] [%] | IC50 [15] [µM] | Weight change [16] [%] | ILS at 80 mg/kg [18] [%] | Survival [19] [days] | IC50 [20] [µM] | ILS at 60 mg/kg [22] [%] | Survival [23] [days] | Weight change [24] [%] | Range [27] [days] | other results
1 | NCCC[C@H](NC(=O)c1ccc(NCc2cnc3nc(N)nc(N)c3n2)cc1)C(=O)O |  |  |  |  |  |  |  |  |  |  |  |  |  |  |  |  |  |  | Ki [1]: 0.3 µM; Ki [2]: 0.3 µM
2 | CN(Cc1cnc2nc(N)nc(N)c2n1)c1ccc(C(=O)NC(CCCCCCCCC(=O)O)C(=O)O)cc1 (centres undefined) | -5 | 73 | 2.2 | 16.9 | 78 | 0.0031 | 15 | 92 | 5 | 0.056 | 4 | 73 | 15.2 | 0.029 | 70 | 15.2 | 2 |  | Range [4]: 10 days; Range [8]: 13 days; inhibition [13]: 49%; Range [17]: 15 days; Range [21]: 9 days
3 | Nc1nc(N)c2nc(CNc3ccc(C(=O)N[C@@H](CCC(=O)O)C(=O)O)cc3)cnc2n1 [AMINOPTERIN] |  |  |  |  |  |  |  |  |  |  |  |  |  | 0.025 |  |  |  |  | 
4 | CN(Cc1cnc2nc(N)nc(N)c2n1)c1ccc(C(=O)NC(CCCCCCCCCC(=O)O)C(=O)O)cc1 (centres undefined) | 2 | 98 | 10 | 17.2 | 58 | 0.0071 | 17.6 | 95 | 6 | 0.016 | 5 | 73 | 17.4 | 0.034 | 100 | 15.2 | 3 | 12 | inhibition [25]: 53%; Range [26]: 15 days; Range [28]: 14 days; Range [29]: 16 days
5 | CN(Cc1cnc2nc(N)nc(N)c2n1)c1ccc(C(=O)NC(CCCCCCCC(=O)O)C(=O)O)cc1 (centres undefined) | 3 | 55 | 1 | 14.6 | 73 | 0.0042 | 15.3 | 66 | 7 | 0.062 | 6 | 73 | 13.6 | 0.032 | 74 | 15.2 | 6 | 12 | inhibition [30]: 43%; Range [31]: 13 days; Range [32]: 12 days; Range [33]: 14 days
